Test systems include SF-268; UACC-62; NCI/ADR-RES; EKVX; MDA-MB-435; MCF7; NCI-H522; SR; K562; UACC-257; NCI-H23; UO-31; HL-60; Hs-578T; NCI-H460; SK-OV-3; SF-539; U-251; SN12C; SNB-75.
Assay in all cases: inhibition of tumour cell growth, NCI panel, 48 h

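In this assay, cells in 96-well plates receive the compound at five concentrations for 48 hours. Endpoints are linearly interpolated between the surrounding concentrations. At the GI50, growth is halved.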 Activity calls are given as the source filed them. Rule as the data show it: active = GI50 up to about 1.1 µM and inactive = higher.

Turning to `COc1cccc(-c2nnc3c(-c4ccccc4)nc4ccccc4n23)c1`, the GI50 with SF-268 was > 100 µM (inactive); with UACC-62 it was 75.7 µM (inactive); with NCI/ADR-RES, 14.4 µM (inactive); with EKVX, 55.2 µM (inactive); in the assay on MDA-MB-435 it was 2.91 µM (inactive); in the assay on MCF7 it was 14.4 µM (inactive). Further, the GI50 with NCI-H522 is 3.37 µM (inactive); with SR, 3.9 µM (inactive); with K562, 4.11 µM (inactive); in the assay with UACC-257, 17.9 µM (inactive); in the assay on NCI-H23, 30.1 µM (inactive); with UO-31, 10.5 µM (inactive). The GI50 in the assay on HL-60 was 7.18 µM (inactive); in the assay on Hs-578T, 57.9 µM (inactive); in the assay with NCI-H460 it was 10.3 µM (inactive); in the assay with SK-OV-3, 73.8 µM (inactive); in the assay on SF-539, 65.8 µM (inactive); in the assay on U-251 it was 21.8 µM (inactive). Moreover, the GI50 in the assay on SN12C is 73.1 µM (inactive).

Consider `O=c1[nH]c(=O)n(COCCO)c2ccsc12`, for which the GI50 with SF-268, in the assay with NCI/ADR-RES, with EKVX, with MDA-MB-435, in the assay with MCF7 and in the assay with NCI-H522 was > 100 µM (inactive) in each case. The GI50 in the assay with SR, with K562, in the assay on UACC-257, with NCI-H23, with UO-31 and with SNB-75 was > 100 µM (inactive) throughout. Besides, the GI50 with HL-60, in the assay with Hs-578T, in the assay with NCI-H460, in the assay on SF-539, in the assay on U-251 and in the assay with SN12C was > 100 µM (inactive) in each case.

For `N=C1C(O)C2(I)c3ccccc3N3C(=N)C(O)C4c5ccccc5N1C4C32` (stereo unspecified), the GI50 in the assay with SF-268 was > 100 µM (inactive); in the assay on UACC-62, > 100 µM (inactive); in the assay on NCI/ADR-RES, 61.2 µM (inactive); in the assay on EKVX, > 100 µM (inactive); in the assay with MDA-MB-435, 20.4 µM (inactive); in the assay with MCF7 it was 19.6 µM (inactive). For the same compound, the GI50 in the assay with NCI-H522 was 25.9 µM (inactive); in the assay with SR, 34.3 µM (inactive); in the assay with K562, 26.4 µM (inactive); in the assay on UACC-257 it was > 100 µM (inactive); with NCI-H23, 35.6 µM (inactive); with UO-31, > 100 µM (inactive). Further, the GI50 in the assay on SNB-75 was > 100 µM (inactive); with HL-60 it was 20.2 µM (inactive); with Hs-578T, 61.8 µM (inactive); with NCI-H460, 37.7 µM (inactive); in the assay with SK-OV-3, 40.6 µM (inactive); in the assay with U-251 it was 22.1 µM (inactive). Also, the GI50 with SN12C is 54.3 µM (inactive).

For the compound `Cc1cccc2c(N)c3cccc(C(=O)NCCN(C)C)c3nc12`, the GI50 in the assay on SF-268 is < 0.0265 µM (active); in the assay on UACC-62, 0.0649 µM (active); in the assay on NCI/ADR-RES, 0.373 µM (active); with EKVX, 0.0583 µM (active); with MDA-MB-435, 0.12 µM (active); in the assay with MCF7, < 0.0168 µM (active). For the same compound, the GI50 in the assay on NCI-H522 is < 0.0176 µM (active); in the assay on SR, < 0.01 µM (active); in the assay on K562, 0.0162 µM (active); in the assay with UACC-257, 0.193 µM (active); in the assay with NCI-H23, < 0.0259 µM (active); in the assay on UO-31, 0.112 µM (active). Besides, the GI50 is 0.074 µM (active) with SNB-75; < 0.01 µM (active) in the assay with HL-60; 0.207 µM (active) with Hs-578T; < 0.01 µM (active) with NCI-H460; 0.113 µM (active) in the assay with SK-OV-3; < 0.0302 µM (active) in the assay on U-251. The GI50 in the assay on SN12C is < 0.0167 µM (active).

Turning to `CC1(C)C2CCC1(C)C(OC(=O)/C=C/C(=O)OC1CC3CCC1(C)C3(C)C)C2` (stereo unspecified), the GI50 in the assay with SF-268 is > 100 µM (inactive); in the assay on UACC-62, 31.2 µM (inactive); in the assay on NCI/ADR-RES it was > 100 µM (inactive); in the assay with EKVX, > 100 µM (inactive); in the assay with MDA-MB-435 it was 67.3 µM (inactive); with MCF7, 19.3 µM (inactive). For the same compound, the GI50 in the assay with NCI-H522 was 41 µM (inactive); in the assay with SR it was 20.1 µM (inactive); with K562, 31.9 µM (inactive); with UACC-257, 31 µM (inactive); with NCI-H23, 47.9 µM (inactive); in the assay on UO-31, > 100 µM (inactive). Also, the GI50 in the assay on SNB-75 is 0.902 µM (active); in the assay on HL-60, 16.9 µM (inactive); in the assay with Hs-578T, 63 µM (inactive); with NCI-H460, 67.9 µM (inactive); in the assay on SF-539 it was > 100 µM (inactive); in the assay on U-251 it was 46.1 µM (inactive). Further, the GI50 with SN12C was 82.2 µM (inactive).

Regarding `CC#CC#C/C=C1/O[C@]2(CCC(OC(C)=O)CO2)[C@@H]2O[C@H]12` (stereo partly specified), the GI50 is 27.8 µM (inactive) with SF-268; 16.6 µM (inactive) in the assay on UACC-62; 21.7 µM (inactive) with NCI/ADR-RES; 31.5 µM (inactive) in the assay on EKVX; 22.1 µM (inactive) in the assay with MDA-MB-435; 26.5 µM (inactive) in the assay on MCF7. Besides, the GI50 in the assay with NCI-H522 was 15.3 µM (inactive); with SR, 25.9 µM (inactive); in the assay with K562, 29.4 µM (inactive); in the assay on UACC-257, 21.6 µM (inactive); in the assay on NCI-H23, 19.4 µM (inactive); in the assay with UO-31 it was 20.1 µM (inactive). The GI50 with SNB-75 is 80.5 µM (inactive); in the assay with HL-60 it was 18.4 µM (inactive); in the assay on Hs-578T, 40.3 µM (inactive); with NCI-H460 it was 18.1 µM (inactive); with SK-OV-3, 51.9 µM (inactive); in the assay on U-251 it was 17.9 µM (inactive). In addition, the GI50 in the assay with SN12C was 20.6 µM (inactive).

`COc1ccc(C#Cn2nnc3ccccc32)cc1`: the GI50 with SF-268 was 91.2 µM (inactive); in the assay on UACC-62 it was > 100 µM (inactive); in the assay with NCI/ADR-RES, > 100 µM (inactive); in the assay with EKVX, 32.8 µM (inactive); in the assay with MDA-MB-435, > 100 µM (inactive); with MCF7, 41.8 µM (inactive). Further, the GI50 is 48 µM (inactive) in the assay on NCI-H522; > 100 µM (inactive) in the assay on SR; > 100 µM (inactive) in the assay with K562; 50.4 µM (inactive) with UACC-257; > 100 µM (inactive) in the assay on NCI-H23; 2.15 µM (inactive) in the assay with UO-31. Further, the GI50 was 21.6 µM (inactive) in the assay on HL-60; > 100 µM (inactive) with Hs-578T; > 100 µM (inactive) in the assay with NCI-H460; > 100 µM (inactive) in the assay with SF-539; > 100 µM (inactive) in the assay on U-251; > 100 µM (inactive) with SN12C.

Take `CCc1c(CNC2=NCCN2)c(CC)c(CNC2=NCCN2)c(CC)c1CNC1=NCCN1`: the GI50 with SF-268, in the assay with UACC-62, in the assay with NCI/ADR-RES, in the assay on EKVX, in the assay with MDA-MB-435 and in the assay on MCF7 was > 100 µM (inactive) throughout. The GI50 in the assay with NCI-H522, in the assay on SR, in the assay on K562, with UACC-257, in the assay on NCI-H23 and in the assay with UO-31 was > 100 µM (inactive) throughout. Moreover, the GI50 in the assay on SNB-75, in the assay on Hs-578T, with NCI-H460, with SK-OV-3, in the assay on SF-539 and in the assay on U-251 was > 100 µM (inactive) throughout. The GI50 in the assay with SN12C is > 100 µM (inactive).

For the compound `Cc1ccc(C(=O)OC(C)C)cc1/N=N/N(C)C`, the GI50 with SF-268 was > 68.7 µM (inactive); with UACC-62, > 96.2 µM (inactive); in the assay with NCI/ADR-RES it was 98.4 µM (inactive); in the assay with EKVX, > 100 µM (inactive); in the assay with MDA-MB-435, > 100 µM (inactive); in the assay with MCF7, > 100 µM (inactive). For the same compound, the GI50 was 31.1 µM (inactive) in the assay on NCI-H522; > 100 µM (inactive) in the assay on SR; > 100 µM (inactive) in the assay with K562; 27.1 µM (inactive) in the assay with UACC-257; 45.3 µM (inactive) with NCI-H23; 70 µM (inactive) in the assay on UO-31. The GI50 was 39.8 µM (inactive) with HL-60; > 100 µM (inactive) with Hs-578T; > 100 µM (inactive) in the assay on NCI-H460; > 100 µM (inactive) in the assay with SK-OV-3; > 100 µM (inactive) with SF-539; > 71.4 µM (inactive) in the assay with U-251. For the same compound, the GI50 with SN12C was 97.5 µM (inactive).

With `CC1C2CCC3C(O)C2(CC(O)C2(O)C1CC(O)C2(C)C)CC3(C)O` (stereo unspecified), the GI50 with SF-268, in the assay with UACC-62, in the assay on NCI/ADR-RES, in the assay with EKVX, with MDA-MB-435 and in the assay with MCF7 was > 100 µM (inactive) throughout. In addition, the GI50 in the assay on NCI-H522, in the assay on SR, in the assay on K562, with UACC-257, in the assay with NCI-H23 and in the assay on UO-31 was > 100 µM (inactive) each time. The GI50 in the assay with HL-60, in the assay on Hs-578T, in the assay on NCI-H460, with SK-OV-3, with SF-539 and in the assay on U-251 was > 100 µM (inactive) in each case. Moreover, in the assay on SN12C, the GI50 is > 100 µM (inactive).

In the case of `COC1CC(OC2OC(CO)C(O)C(O)C2O)/C(=C\C#N)C(O)C1OC` (stereo unspecified), the GI50 in the assay on SF-268, in the assay with UACC-62, in the assay with NCI/ADR-RES, in the assay with EKVX, in the assay on MDA-MB-435 and in the assay with MCF7 was > 100 µM (inactive) each time. For the same compound, the GI50 with NCI-H522, in the assay on SR, in the assay with UACC-257, with NCI-H23, in the assay on UO-31 and in the assay on HL-60 was > 100 µM (inactive) in each case. The GI50 in the assay on Hs-578T, in the assay with NCI-H460, in the assay with SK-OV-3, in the assay with SF-539, in the assay on U-251 and in the assay with SN12C was > 100 µM (inactive) in each case.

The record behind these values is ChEMBL document CHEMBL1201862, “PubChem BioAssay data set” (2004).
